Measured values taken from PubChem BioAssay AID2060882 (Molecular Pharmacology Branch, DTP, NCI, 2025).
pIC50: −log10 of the molar value.

System: 898857-211-R-J1-PDC complex spheroids, growth % test/control
Assay: Anticancer human tumor 898857-211-R-J1-PDC patient-derived melanoma cell line growth inhibition [RAS]
Conditions: for pIC50: curve of first compound; for viability, T/C: stronger effect = lower value
Procedure, shortened: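 Multi-cell-type spheroids: tumor cells plus HUVEC endothelial cells and mesenchymal stem cells. RAS-pathway inhibitors were combined with targeted agents, each dosed in half-log steps down from clinical Cmax, or from 10 microM when Cmax was unknown.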

[1] = second compound 0.000949 µM, first compound 0.0316 µM
[2] = second compound 0.000949 µM, first compound 0.1 µM
[3] = second compound 0.003 µM, first compound 0.0316 µM
[4] = second compound 0.003 µM, first compound 0.1 µM
[5] = second compound 0.00949 µM, first compound 0.0316 µM
[6] = second compound 0.00949 µM, first compound 0.1 µM
[7] = second compound 0.03 µM, first compound 0.0316 µM
[8] = second compound 0.03 µM, first compound 0.1 µM
[9] = second compound 0.0949 µM, first compound 0.0316 µM
[10] = second compound 0.0949 µM, first compound 0.1 µM
[11] = second compound 0.3 µM, first compound 0.0316 µM
[12] = second compound 0.3 µM, first compound 0.1 µM
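Note: spheroids exposed to compound for seven days before readout.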
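Throughout, for viability, T/C: 100% = DMSO vehicle control wells.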

Question: With `CC(C)NCC(C(=O)N1CCN(c2ncnc3c2C(C)CC3O)CC1)c1ccc(Cl)cc1` (centres undefined) + CCn1c(-c2cc(N3CCN(C)CC3)cnc2C(C)OC)c2c3cc(ccc31)-c1csc(n1)CC(NC(=O)C1CC1C)C(=O)N1CCCC(N1)C(=O)OCC(C)(C)C2 as the compound, how does the pIC50 (second compound 0.000949 µM) read?
Answer: < 5.00

Question: And the pIC50 (second compound 0.003 µM)?
Answer: 5.12

Question: And the pIC50 (second compound 0.00949 µM)?
Answer: 5.11

Question: What about the pIC50 (second compound 0.03 µM) of the same compound?
Answer: 5.20

Question: What about the pIC50 (second compound 0.0949 µM) of the same compound?
Answer: 5.09

Question: What about the pIC50 (second compound 0.3 µM) of the same compound?
Answer: 5.21

Question: And the viability, T/C [1]?
Answer: 105%

Question: What about the viability, T/C [2] of the same compound?
Answer: 105%

Question: What about the viability, T/C (second compound 0.000949 µM, first compound 0.316 µM) of the same compound?
Answer: 103%

Question: What about the viability, T/C (second compound 0.000949 µM, first compound 1 µM) of the same compound?
Answer: 76.7%

Question: And the viability, T/C (second compound 0.000949 µM, first compound 3.16 µM)?
Answer: 58.6%

Question: What about the viability, T/C (second compound 0.000949 µM, first compound 10 µM) of the same compound?
Answer: 50.5%

Question: And the viability, T/C [3]?
Answer: 102%

Question: What about the viability, T/C [4] of the same compound?
Answer: 106%

Question: And the viability, T/C (second compound 0.003 µM, first compound 0.316 µM)?
Answer: 93.5%

Question: What about the viability, T/C (second compound 0.003 µM, first compound 1 µM) of the same compound?
Answer: 82.1%

Question: What about the viability, T/C (second compound 0.003 µM, first compound 3.16 µM) of the same compound?
Answer: 63.3%

Question: What about the viability, T/C (second compound 0.003 µM, first compound 10 µM) of the same compound?
Answer: 45.6%

Question: What about the viability, T/C [5] of the same compound?
Answer: 85.4%

Question: What about the viability, T/C [6] of the same compound?
Answer: 101%

Question: And the viability, T/C (second compound 0.00949 µM, first compound 0.316 µM)?
Answer: 82%

Question: What about the viability, T/C (second compound 0.00949 µM, first compound 1 µM) of the same compound?
Answer: 82%

Question: What about the viability, T/C (second compound 0.00949 µM, first compound 3.16 µM) of the same compound?
Answer: 61.4%

Question: What about the viability, T/C (second compound 0.00949 µM, first compound 10 µM) of the same compound?
Answer: 46.6%

Question: What about the viability, T/C [7] of the same compound?
Answer: 94%

Question: What about the viability, T/C [8] of the same compound?
Answer: 109%

Question: What about the viability, T/C (second compound 0.03 µM, first compound 0.316 µM) of the same compound?
Answer: 96%

Question: What about the viability, T/C (second compound 0.03 µM, first compound 1 µM) of the same compound?
Answer: 75.7%

Question: And the viability, T/C (second compound 0.03 µM, first compound 3.16 µM)?
Answer: 61.2%

Question: And the viability, T/C (second compound 0.03 µM, first compound 10 µM)?
Answer: 43.5%

Question: And the viability, T/C [9]?
Answer: 99.4%

Question: What about the viability, T/C [10] of the same compound?
Answer: 107%

Question: What about the viability, T/C (second compound 0.0949 µM, first compound 0.316 µM) of the same compound?
Answer: 104%

Question: And the viability, T/C (second compound 0.0949 µM, first compound 1 µM)?
Answer: 79.6%

Question: And the viability, T/C (second compound 0.0949 µM, first compound 3.16 µM)?
Answer: 69.1%

Question: What about the viability, T/C (second compound 0.0949 µM, first compound 10 µM) of the same compound?
Answer: 45.6%

Question: What about the viability, T/C [11] of the same compound?
Answer: 99.9%

Question: And the viability, T/C [12]?
Answer: 97.2%

Question: What about the viability, T/C (second compound 0.3 µM, first compound 0.316 µM) of the same compound?
Answer: 86.2%

Question: And the viability, T/C (second compound 0.3 µM, first compound 1 µM)?
Answer: 91.8%

Question: And the viability, T/C (second compound 0.3 µM, first compound 3.16 µM)?
Answer: 63.9%

Question: What about the viability, T/C (second compound 0.3 µM, first compound 10 µM) of the same compound?
Answer: 39.8%

Question: With `CC(C)n1nc(-c2ccc3oc(N)nc3c2)c2c(N)ncnc21` + CCn1c(-c2cc(N3CCN(C)CC3)cnc2C(C)OC)c2c3cc(ccc31)-c1csc(n1)CC(NC(=O)C1CC1C)C(=O)N1CCCC(N1)C(=O)OCC(C)(C)C2 as the compound, how does the pIC50 (second compound 0.000949 µM) read?
Answer: 7.69

Question: What about the pIC50 (second compound 0.003 µM) of the same compound?
Answer: 7.71

Question: What about the pIC50 (second compound 0.00949 µM) of the same compound?
Answer: 7.76

Question: What about the pIC50 (second compound 0.03 µM) of the same compound?
Answer: 7.86

Question: What about the pIC50 (second compound 0.0949 µM) of the same compound?
Answer: 7.74

Question: What about the pIC50 (second compound 0.3 µM) of the same compound?
Answer: 7.83

Question: And the viability, T/C (second compound 0.000949 µM, first compound 0.000316 µM)?
Answer: 98%

Question: And the viability, T/C (second compound 0.000949 µM, first compound 0.001 µM)?
Answer: 82.6%

Question: What about the viability, T/C (second compound 0.000949 µM, first compound 0.00316 µM) of the same compound?
Answer: 89.9%

Question: And the viability, T/C (second compound 0.000949 µM, first compound 0.01 µM)?
Answer: 63.3%

Question: And the viability, T/C [1]?
Answer: 41.1%

Question: And the viability, T/C [2]?
Answer: 16.7%

Question: And the viability, T/C (second compound 0.003 µM, first compound 0.000316 µM)?
Answer: 100%

Question: What about the viability, T/C (second compound 0.003 µM, first compound 0.001 µM) of the same compound?
Answer: 92.8%

Question: And the viability, T/C (second compound 0.003 µM, first compound 0.00316 µM)?
Answer: 86.5%

Question: What about the viability, T/C (second compound 0.003 µM, first compound 0.01 µM) of the same compound?
Answer: 69.3%

Question: What about the viability, T/C [3] of the same compound?
Answer: 35.6%

Question: What about the viability, T/C [4] of the same compound?
Answer: 14.1%

Question: What about the viability, T/C (second compound 0.00949 µM, first compound 0.000316 µM) of the same compound?
Answer: 92%

Question: And the viability, T/C (second compound 0.00949 µM, first compound 0.001 µM)?
Answer: 88.3%

Question: What about the viability, T/C (second compound 0.00949 µM, first compound 0.00316 µM) of the same compound?
Answer: 80.2%

Question: What about the viability, T/C (second compound 0.00949 µM, first compound 0.01 µM) of the same compound?
Answer: 63.5%

Question: And the viability, T/C [5]?
Answer: 35.4%

Question: What about the viability, T/C [6] of the same compound?
Answer: 15.7%

Question: And the viability, T/C (second compound 0.03 µM, first compound 0.000316 µM)?
Answer: 97.4%

Question: And the viability, T/C (second compound 0.03 µM, first compound 0.001 µM)?
Answer: 91.8%

Question: And the viability, T/C (second compound 0.03 µM, first compound 0.00316 µM)?
Answer: 69.5%

Question: And the viability, T/C (second compound 0.03 µM, first compound 0.01 µM)?
Answer: 57%

Question: What about the viability, T/C [7] of the same compound?
Answer: 35.2%

Question: What about the viability, T/C [8] of the same compound?
Answer: 12.4%

Question: And the viability, T/C (second compound 0.0949 µM, first compound 0.000316 µM)?
Answer: 109%

Question: And the viability, T/C (second compound 0.0949 µM, first compound 0.001 µM)?
Answer: 108%

Question: And the viability, T/C (second compound 0.0949 µM, first compound 0.00316 µM)?
Answer: 79.5%

Question: What about the viability, T/C (second compound 0.0949 µM, first compound 0.01 µM) of the same compound?
Answer: 64.6%

Question: What about the viability, T/C [9] of the same compound?
Answer: 38.5%

Question: What about the viability, T/C [10] of the same compound?
Answer: 15.1%

Question: And the viability, T/C (second compound 0.3 µM, first compound 0.000316 µM)?
Answer: 103%

Question: And the viability, T/C (second compound 0.3 µM, first compound 0.001 µM)?
Answer: 100%

Question: And the viability, T/C (second compound 0.3 µM, first compound 0.00316 µM)?
Answer: 69.2%

Question: What about the viability, T/C (second compound 0.3 µM, first compound 0.01 µM) of the same compound?
Answer: 56.2%

Question: What about the viability, T/C [11] of the same compound?
Answer: 40.2%

Question: And the viability, T/C [12]?
Answer: 12.7%
